Where “and” joins values, the source holds several entries; their conditions need not be identical. Equal values may be shown once. Inconclusive results and toxic doses are left out. Cut-off read from the data, not from the text of the source: active = T/C of 150% or more; inactive = T/C below 125%.
Tested on: L1210 leukemia ip in BDF1 mice, survival T/C
Assay: NCI In Vivo Anticancer Drug Screen. Data for tumor model L1210 Leukemia (intraperitoneal) in B6D2F1 (BDF1) mice
Settings: endpoint: mean survival time, higher = longer survival
Summary of the method: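 Mice bearing the transplanted tumor received compound or vehicle. Survival of the treated group was divided by that of the vehicle-treated control group to give the ratio.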

[1] = dose: 100.0 mg/kg/injection, schedule: Q01DX009 (ip), vehicle: Klucel (hydroxypropylcellulose) (HPC)
[2] = dose: 200.0 mg/kg/injection, schedule: Q01DX009 (ip), vehicle: Klucel (hydroxypropylcellulose) (HPC)
[3] = dose: 400.0 mg/kg/injection, schedule: Q01DX009 (ip), vehicle: Klucel (hydroxypropylcellulose) (HPC)
[4] = dose: 100.0 mg/kg/injection, schedule: Q04DX003 (ip), vehicle: saline
[5] = dose: 200.0 mg/kg/injection, schedule: Q04DX003 (ip), vehicle: saline
[6] = dose: 400.0 mg/kg/injection, schedule: Q04DX003 (ip), vehicle: saline
[7] = dose: 100.0 mg/kg/injection, schedule: Q04DX003 (ip), vehicle: saline with Tween-80
[8] = dose: 100.0 mg/kg/injection, schedule: Q01DX009 (ip), vehicle: saline with Tween-80
[9] = dose: 200.0 mg/kg/injection, schedule: Q01DX009 (ip), vehicle: saline with Tween-80
[10] = dose: 400.0 mg/kg/injection, schedule: Q01DX009 (ip), vehicle: saline with Tween-80
[11] = dose: 50.0 mg/kg/injection, schedule: Q01DX009 (ip), vehicle: Klucel (hydroxypropylcellulose) (HPC)
[12] = dose: 50.0 mg/kg/injection, schedule: Q01DX001 (ip), vehicle: saline
[13] = dose: 100.0 mg/kg/injection, schedule: Q01DX001 (ip), vehicle: saline
[14] = dose: 200.0 mg/kg/injection, schedule: Q01DX001 (ip), vehicle: saline
[15] = dose: 400.0 mg/kg/injection, schedule: Q01DX001 (ip), vehicle: saline
[16] = dose: 100.0 mg/kg/injection, schedule: Q04DX003 (ip), vehicle: Klucel (hydroxypropylcellulose) (HPC)
[17] = dose: 200.0 mg/kg/injection, schedule: Q04DX003 (ip), vehicle: Klucel (hydroxypropylcellulose) (HPC)
[18] = dose: 400.0 mg/kg/injection, schedule: Q04DX003 (ip), vehicle: Klucel (hydroxypropylcellulose) (HPC)
[19] = dose: 100.0 mg/kg/injection, schedule: Q01DX001 (ip), vehicle: Klucel (hydroxypropylcellulose) (HPC)
[20] = dose: 100.0 mg/kg/injection, schedule: Q04DX002 (ip), vehicle: Klucel (hydroxypropylcellulose) (HPC)
[21] = dose: 200.0 mg/kg/injection, schedule: Q04DX002 (ip), vehicle: Klucel (hydroxypropylcellulose) (HPC)
[22] = dose: 400.0 mg/kg/injection, schedule: Q04DX002 (ip), vehicle: Klucel (hydroxypropylcellulose) (HPC)

Measured: T/C

CCCCNCCC(=O)c1ccc(Cl)cc1
inactive: dose: 6.25 mg/kg/injection, schedule: Q01DX009 (ip), vehicle: saline with Tween-80 98 % of control | dose: 12.5 mg/kg/injection, schedule: Q01DX009 (ip), vehicle: saline with Tween-80 100 % of control | dose: 25.0 mg/kg/injection, schedule: Q01DX009 (ip), vehicle: saline with Tween-80 94 % of control

O=C(COc1cccc([N+](=O)[O-])c1)Nc1ccc(S(=O)(=O)F)cc1
inactive: [1] 102 % of control | [2] 100 % of control | [3] 100 % of control

CC1(C#N)CC/C(=C\c2ccc3c(c2)OCO3)C(=O)C1 (configuration not stated)
inactive: [4] 96 % of control | [5] 91 % of control | [6] 107 % of control

O=C(OCC1CC1)c1cc([N+](=O)[O-])cc([N+](=O)[O-])c1
inactive: dose: 25.0 mg/kg/injection, schedule: Q04DX003 (ip), vehicle: saline with Tween-80 108 % of control | dose: 50.0 mg/kg/injection, schedule: Q04DX003 (ip), vehicle: saline with Tween-80 106 % of control | [7] 101 % of control

O=[N+]([O-])c1ccc(OCCN2CCCC2)cc1
inactive: dose: 75.0 mg/kg/injection, schedule: Q01DX001 (ip), vehicle: saline 93 % of control | dose: 150.0 mg/kg/injection, schedule: Q01DX001 (ip), vehicle: saline 98 % of control

N#CCCN1CCCC(=O)NC1=O
inactive: [8] 103 % of control | [4] 105 % of control | [9] 94 % of control | [5] 103 % of control | [10] 97 % of control | [6] 100 % of control

Cc1cc(C)c(NC(=O)c2ccccc2Cl)c(C)c1
inactive: [8] 93 % of control | [9] 93 % of control | [10] 97 % of control

OC1(c2ccc(F)cc2)c2ccccc2-c2ccccc21
inactive: dose: 75.0 mg/kg/injection, schedule: Q01DX001 (ip), vehicle: other 96 % of control | dose: 150.0 mg/kg/injection, schedule: Q01DX001 (ip), vehicle: other 96 % of control

CCOc1ccc(NC(=O)Nc2cccc(F)c2)cc1
inactive: dose: 12.5 mg/kg/injection, schedule: Q01DX009 (ip), vehicle: Klucel (hydroxypropylcellulose) (HPC) 88 % of control | dose: 25.0 mg/kg/injection, schedule: Q01DX009 (ip), vehicle: Klucel (hydroxypropylcellulose) (HPC) 90 % of control | [11] 88 % of control | [2] 90 % of control

COc1ccc(-c2oc3ccccc3c(=O)c2O)cc1
inactive: [12] 104 % of control | [13] 101 % of control | [14] 106 % of control | [15] 98 % of control

O=C(CCCCCCCCC(=O)OCc1ccccc1)OCc1ccccc1
inactive: dose: 100.0 mg/kg/injection, schedule: Q04DX002 (ip), vehicle: saline 96 % of control | dose: 200.0 mg/kg/injection, schedule: Q04DX002 (ip), vehicle: saline 88 % of control | dose: 400.0 mg/kg/injection, schedule: Q04DX002 (ip), vehicle: saline 100 % of control

O=[N+]([O-])c1ccc2scnc2c1
inactive: dose: 100.0 mg/kg/injection, schedule: Q01DX001 (ip), vehicle: acetone 98 % of control | dose: 100.0 mg/kg/injection, schedule: Q04DX003 (ip), vehicle: acetone 107 % of control | dose: 200.0 mg/kg/injection, schedule: Q01DX001 (ip), vehicle: acetone 92 % of control | dose: 200.0 mg/kg/injection, schedule: Q04DX003 (ip), vehicle: acetone 89 % of control | dose: 400.0 mg/kg/injection, schedule: Q01DX001 (ip), vehicle: acetone 95 % of control | dose: 400.0 mg/kg/injection, schedule: Q04DX003 (ip), vehicle: acetone 96 % of control

O=C(n1ccnc1)C(F)(F)F
inactive: dose: 100.0 mg/kg/injection, schedule: Q01DX001 (ip), vehicle: saline sonified 105 % of control | [4] 109 % of control | dose: 200.0 mg/kg/injection, schedule: Q01DX001 (ip), vehicle: saline sonified 108 % of control | [5] 91 % of control | dose: 400.0 mg/kg/injection, schedule: Q01DX001 (ip), vehicle: saline sonified 101 % of control | [6] 97 % of control

CCN(CC)c1ccc(/C=N/Nc2nnc(N/N=C/c3ccc(N(CC)CC)cc3)c3ccccc23)cc1
inactive: [12] 94 % of control | [13] 92 % of control | [14] 105 % of control

O=C(Nc1cccc(C(F)(F)F)c1)Nc1cc([N+](=O)[O-])ccc1Cl
inactive: [11] 96 % of control | [1] 97 % of control and 108 % of control | [2] 89 % of control | [3] 88 % of control

Cc1ccc(N(N)c2ccc(C)cc2)cc1
inactive: [1] 98 % of control | [16] 100 % of control | [2] 98 % of control | [17] 97 % of control | [18] 100 % of control

Cn1c(SCc2ccccc2)nccc1=O
inactive: [1] 96 % of control | [2] 104 % of control

Cc1cc(C)nc(NC(=O)Nc2cccc(C(F)(F)F)c2)c1
inactive: [19] 102 % of control | [1] 104 % of control and 113 % of control | [20] 101 % of control and 117 % of control | [16] 94 % of control | dose: 200.0 mg/kg/injection, schedule: Q01DX001 (ip), vehicle: Klucel (hydroxypropylcellulose) (HPC) 94 % of control | [2] 93 % of control and 109 % of control | [21] 96 % of control and 98 % of control | [17] 111 % of control | dose: 400.0 mg/kg/injection, schedule: Q01DX001 (ip), vehicle: Klucel (hydroxypropylcellulose) (HPC) 98 % of control | [3] 104 % of control and 107 % of control | [22] 98 % of control and 99 % of control | [18] 99 % of control

Cc1ccc(S(=O)(=O)N/N=C/c2c(O)ccc3ccccc23)cc1
inactive: [8] 87 % of control | [7] 96 % of control | [9] 89 % of control | dose: 200.0 mg/kg/injection, schedule: Q04DX003 (ip), vehicle: saline with Tween-80 94 % of control | [10] 91 % of control | dose: 400.0 mg/kg/injection, schedule: Q04DX003 (ip), vehicle: saline with Tween-80 94 % of control

CCOC(=O)C(C(=O)c1ccccc1)=P(c1ccccc1)(c1ccccc1)c1ccccc1
inactive: [16] 100 % of control | [17] 100 % of control | [18] 102 % of control

NNC(=O)C1CC2C(=O)NNC(=O)C2C1C(=O)O (configuration not stated)
inactive: [13] 102 % of control | [14] 107 % of control | [15] 113 % of control

CCOC(=O)CCc1nc2ccc3ccccc3c2c(=O)[nH]1
inactive: [20] 88 % of control | [21] 91 % of control | [22] 94 % of control

O=S(N=C(C(F)(F)F)C(F)(F)F)C(F)(F)F (configuration not stated)
inactive: dose: 50.0 mg/kg/injection, schedule: Q01DX001 (ip), vehicle: Klucel (hydroxypropylcellulose) (HPC) 92 % of control | [19] 106 % of control

CN(Cc1ccccc1)Cc1ccccc1
inactive: [11] 100 % of control | [1] 100 % of control | [16] 97 % of control | [2] 92 % of control | [17] 97 % of control

COC(=O)c1cc([N+](=O)[O-])c(Br)s1
inactive: [16] 93 % of control

— PubChem BioAssay AID248 (DTP/NCI, 2004)
